{
  "source": "patent US11149030B2",
  "about": "“Plants having increased tolerance to herbicides” (BASF AGRO B.V., priority 2016, dated 2021)",
  "tested_on": "T2 soybean events expressing the indicated Amaranthus PPO2 variant transgene",
  "test": "Soybean PPO inhibitor tolerance testing, injury score (Table C)",
  "type": "in vivo, Soybean cv Jake",
  "conditions": "V2 stage, 3 days after treatment, individual plants",
  "experimental": "Soybean cv Jake is transformed as previously described by Siminszky et al., Phytochem Rev. 5:445-458 (2006). After regeneration, transformants are transplanted to soil in small pots, placed in growth chambers (16 hr day/8 hr night; 25° C. day/23° C. night; 65% relative humidity; 130-150 microE m-2 s-1) and subsequently tested for the presence of the T-DNA via Taqman analysis. After a few weeks, healthy, transgenic positive, single copy events are transplanted to larger pots and allowed to grow in the growth chamber. An optimal shoot for cutting is about 3-4 inches tall, with at least two nodes present. Each cutting is taken from the original transformant (mother plant) and dipped into rooting hormone powder (indole-3-butyric acid, IBA). The cutting is then placed in oasis wedges inside a bio-dome. The mother plant is taken to maturity in the greenhouse and harvested for seed. Wild type cuttings are also taken simultaneously to serve as negative controls. The cuttings are kept in the bio-dome for 5-7 days and then transplanted to 3 inch pots and then acclimated in the growth chamber for two more days. Subsequently, the cuttings are transferred to the greenhouse, acclimated for approximately 4 days prior to spray. […] g ai/ha saflufenacil plus 1% MSO and/or 25-200 g ai/ha 1,5-dimethyl-6-thioxo-3-(2,2,7-trifluoro-3-oxo-4-(prop-2-ynyl)-3,4-dihydro-2H-benzo[b][1,4]oxazin-6-yl)-1,3,5-triazinane-2,4-dione (CAS 1258836-72-4) plus 1% MSO. Other PPO inhibiting herbicides are also tested in a similar fashion for confirming cross resistance: flumioxazin, butafenacil, acifluorfen, lactofen, bifenox, sulfentrazone, methyl 2-[2-chloro-5-[3-chloro-5-(trifluoromethyl)-2-pyridyl]-4-fluoro-phenoxy]-2-methoxy-acetate, ethyl 2-[2-chloro-5-[3-chloro-5-(trifluoromethyl)-2-pyridyl]-4-fluoro-phenoxy]-2-methoxy-acetate, prop-2-ynyl 2-[2-chloro-5-[3-chloro-5-(trifluoromethyl)-2-pyridyl]-4-fluoro-phenoxy]-2-methoxy-acetate and photosynthesis inhibitor diuron as negative control. […]\nThe following gives a definition of the injury scores measured above: […]",
  "note": "Where “and” joins values, the source holds several entries; their conditions need not be identical. Identical values can stand only once.",
  "data": [
    {"smiles": "COC(=O)C(OC)Oc1cc(-c2ncc(C(F)(F)F)cc2Cl)c(F)cc1Cl", "note": "(stereo not shown) [methyl 2-[2-chloro-5-[3-chloro-5-(trifluoromethyl)-2-pyridyl]-4-fluoro-phenoxy]-2-methoxy-acetate]", "values": [
      {"measurement": "injury on a 0-9 point scale", "setting": "soybean T2, transgene L397E_F420M, 25 g ai/ha + 1% v/v MSO", "result": 1},
      {"measurement": "injury on a 0-9 point scale", "setting": "soybean T2, transgene L397E_F420M, 50 g ai/ha + 1% v/v MSO", "result": "3 and 4"},
      {"measurement": "injury on a 0-9 point scale", "setting": "soybean T2, transgene L397E_F420M, 100 g ai/ha + 1% v/v MSO", "result": "3 and 4 and 9"},
      {"measurement": "injury on a 0-9 point scale", "setting": "soybean T2, transgene L397E_F420M, 200 g ai/ha + 1% v/v MSO", "result": "3 (2×) and 4"},
      {"measurement": "injury on a 0-9 point scale", "setting": "soybean T2, transgene L397Q_F420M, 25 g ai/ha + 1% v/v MSO", "result": "1 and 0 and 9"},
      {"measurement": "injury on a 0-9 point scale", "setting": "soybean T2, transgene L397Q_F420M, 50 g ai/ha + 1% v/v MSO", "result": "9 and 1"},
      {"measurement": "injury on a 0-9 point scale", "setting": "soybean T2, transgene L397Q_F420M, 100 g ai/ha + 1% v/v MSO", "result": 3},
      {"measurement": "injury on a 0-9 point scale", "setting": "soybean T2, transgene L397Q_F420M, 200 g ai/ha + 1% v/v MSO", "result": "3 and 9 and 4"},
      {"measurement": "injury on a 0-9 point scale", "setting": "soybean T2, transgene R128A_F420I event 1, 25 g ai/ha + 1% v/v MSO", "result": 0},
      {"measurement": "injury on a 0-9 point scale", "setting": "soybean T2, transgene R128A_F420I event 1, 50 g ai/ha + 1% v/v MSO", "result": "1 and 2 (2×)"},
      {"measurement": "injury on a 0-9 point scale", "setting": "soybean T2, transgene R128A_F420I event 1, 100 g ai/ha + 1% v/v MSO", "result": "2 (2×) and 3"},
      {"measurement": "injury on a 0-9 point scale", "setting": "soybean T2, transgene R128A_F420I event 1, 200 g ai/ha + 1% v/v MSO", "result": "4 (2×) and 3"},
      {"measurement": "injury on a 0-9 point scale", "setting": "soybean T2, transgene R128A_F420I event 2, 25 g ai/ha + 1% v/v MSO", "result": "0 and 9"},
      {"measurement": "injury on a 0-9 point scale", "setting": "soybean T2, transgene R128A_F420I event 2, 50 g ai/ha + 1% v/v MSO", "result": "3 (2×) and 4"},
      {"measurement": "injury on a 0-9 point scale", "setting": "soybean T2, transgene R128A_F420I event 2, 100 g ai/ha + 1% v/v MSO", "result": "1 and 3"},
      {"measurement": "injury on a 0-9 point scale", "setting": "soybean T2, transgene R128A_F420I event 2, 200 g ai/ha + 1% v/v MSO", "result": "5 (2×) and 4"},
      {"measurement": "injury on a 0-9 point scale", "setting": "soybean T2, transgene R128A_F420I event 3, 25 g ai/ha + 1% v/v MSO", "result": 0},
      {"measurement": "injury on a 0-9 point scale", "setting": "soybean T2, transgene R128A_F420I event 3, 50 g ai/ha + 1% v/v MSO", "result": "1 and 2 and 0"},
      {"measurement": "injury on a 0-9 point scale", "setting": "soybean T2, transgene R128A_F420I event 3, 100 g ai/ha + 1% v/v MSO", "result": "1 and 3"},
      {"measurement": "injury on a 0-9 point scale", "setting": "soybean T2, transgene R128A_F420I event 3, 200 g ai/ha + 1% v/v MSO", "result": 4},
      {"measurement": "injury on a 0-9 point scale", "setting": "soybean T2, transgene R128A_F420V, 25 g ai/ha + 1% v/v MSO", "result": "2 and 1"},
      {"measurement": "injury on a 0-9 point scale", "setting": "soybean T2, transgene R128A_F420V, 50 g ai/ha + 1% v/v MSO", "result": "4 and 9"},
      {"measurement": "injury on a 0-9 point scale", "setting": "soybean T2, transgene R128A_F420V, 100 g ai/ha + 1% v/v MSO", "result": 4},
      {"measurement": "injury on a 0-9 point scale", "setting": "soybean T2, transgene R128A_F420V, 200 g ai/ha + 1% v/v MSO", "result": "9 and 4 and 5"},
      {"measurement": "injury on a 0-9 point scale", "setting": "soybean, Non transgenic, 25 g ai/ha + 1% v/v MSO", "result": "9 (2×) and 8"},
      {"measurement": "injury on a 0-9 point scale", "setting": "soybean, Non transgenic, 50 g ai/ha + 1% v/v MSO", "result": 9},
      {"measurement": "injury on a 0-9 point scale", "setting": "soybean, Non transgenic, 100 g ai/ha + 1% v/v MSO", "result": 9},
      {"measurement": "injury on a 0-9 point scale", "setting": "soybean, Non transgenic, 200 g ai/ha + 1% v/v MSO", "result": "9 (2×) and 8"}
    ]}
  ]
}
